Measured values reported in patent publication US20070117808A1, “Substituted Cycloalkylpyrrolones As Allosteric Modulators Of Glucokinase” (priority 2005, published 2007).
Several values for one entry are separate records, joined by “and”; a condition that tells them apart may be missing. Equal values may be shown once.

Legend:
[1] = target: T1, human pancreas Glucokinase (GK) (Homo sapiens, UniProt P35557); assay: Glucokinase enzyme assay, pancreas GK; format: biochemical; details: for activation at 50 µM: percentage increase in GK activity above vehicle control, compound 50 μM, 12 mM glucose; for EC50: concentration that produces 50% activation above the vehicle control; for EC100%: concentration that produces 100% activation above the vehicle control
T1 construct: (His)6; made in house; host or cells: Escherichia coli
T1 sequence (P35557 1-465): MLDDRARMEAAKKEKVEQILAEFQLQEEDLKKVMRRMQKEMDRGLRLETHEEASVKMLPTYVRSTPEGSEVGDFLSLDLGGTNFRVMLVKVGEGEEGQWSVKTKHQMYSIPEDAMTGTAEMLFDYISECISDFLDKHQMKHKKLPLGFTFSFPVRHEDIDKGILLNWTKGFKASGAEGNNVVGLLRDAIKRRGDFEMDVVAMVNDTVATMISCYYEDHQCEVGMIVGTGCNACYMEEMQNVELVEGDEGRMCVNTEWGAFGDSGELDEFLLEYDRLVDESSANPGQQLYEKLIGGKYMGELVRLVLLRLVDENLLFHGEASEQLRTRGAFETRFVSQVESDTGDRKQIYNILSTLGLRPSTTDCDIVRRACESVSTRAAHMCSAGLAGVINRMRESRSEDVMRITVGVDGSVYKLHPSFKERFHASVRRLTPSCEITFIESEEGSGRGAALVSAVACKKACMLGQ
From the text: (§1) An enzymatic Glucokinase (GK) assay using purified recombinant human liver/pancreas enzyme was used to evaluate the effects of potential small molecule modulators.
(§2) In this assay, GK catalyzes glucose phosphorylation in the presence of ATP. The product of this reaction, glucose-6-phosphate, was then oxidized by an excess of glucose-6-phosphate dehydrogenase to produce gluconate-6-phosphate with concomitant reduction of nicotinamide adenine dinucleotide (NAD). […] Human GK (Liver/Pancreas) was expressed in Escherichia coli as a (His) 6-tagged fusion protein and was purified by metal chelate affinity chromatography. The assay was performed in a final incubation volume of 80 μl in a 96-well clear low UV absorption plates. The incubation mixture consisted of 25 mM HEPES, 2 mM MgSO4, 1 mM dithiothreotol (DTT), 1 mg/mL bovine serum albumin (BSA), 1 mM ATP, 1 mM NAD, and 12 mM glucose, 10 units per mL glucose-6-phosphate dehydrogenase, and +/−300 ng per mL GK. For determination of the affinity (Km) and Vmax, different concentrations of glucose ranging from 0.5 mM to 40 mM were used in the assay; see Grimsby, J., Sarabu, R.; Grippo, J. F.; et. al. Science 2003, 301, 370-373. Production of reduced NAD (Nicotinamide Adenine Dinucleotide) was measured as changes in absorption at 340 nm in 96-well plate reader (Envision model # 2101 Multilabel Plate reader). % Activation @ 50 μM was calculated as the percentage increase in GK activity above the vehicle control with the effective concentration of the compound being 50 μM. EC50% (μM) was calculated as the effective concentration of the compound that produces 50% activation above the vehicle control, and EC100% (μM) was calculated as the effective concentration of the compound that produces 100% activation above the vehicle control.

[2] = target: T2, human liver Glucokinase (GK) (Homo sapiens, UniProt P35557); assay: Glucokinase enzyme assay, liver GK; format: biochemical; details: for activation at 50 µM: percentage increase in GK activity above vehicle control, compound 50 μM, 12 mM glucose; for EC50: concentration that produces 50% activation above the vehicle control; for EC100%: concentration that produces 100% activation above the vehicle control
T2 construct: (His)6; made in house; host or cells: Escherichia coli
T2 sequence (P35557 1-466 isoform P35557-2): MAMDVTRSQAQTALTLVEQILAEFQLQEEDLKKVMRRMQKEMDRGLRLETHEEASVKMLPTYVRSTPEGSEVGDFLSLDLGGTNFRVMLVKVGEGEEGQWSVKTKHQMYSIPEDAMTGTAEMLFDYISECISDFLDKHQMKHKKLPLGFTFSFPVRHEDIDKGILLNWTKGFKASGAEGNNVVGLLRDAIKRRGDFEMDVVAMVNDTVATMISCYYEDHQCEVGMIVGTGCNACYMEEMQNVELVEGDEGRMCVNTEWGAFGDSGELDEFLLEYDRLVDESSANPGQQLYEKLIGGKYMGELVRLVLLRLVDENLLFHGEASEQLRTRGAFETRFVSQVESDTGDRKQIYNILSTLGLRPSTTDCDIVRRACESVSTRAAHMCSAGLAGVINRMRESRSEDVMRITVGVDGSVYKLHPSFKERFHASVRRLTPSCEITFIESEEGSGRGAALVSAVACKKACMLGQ
From the text: as §1, §2

activation at 50 µM [1] [%]	activation at 50 µM [2] [%]	EC50 [1]	EC100% [1]	EC50 [2]	EC100% [2]	Compound
79	21	–	–	–	–	COc1ccc([C@H](C)N2C(=O)C3=C(CCCC3)[C@@H]2SCC(=O)Nc2ccccn2)cc1 (single isomer, unassigned) [Compound 6]
35	0	–	–	–	–	COc1ccc([C@H](C)N2C(=O)C3=C(CCCC3)[C@H]2SCC(=O)Nc2ccccn2)cc1 (single isomer, unassigned) [Compound 7]
–	–	–	–	3100 nM and 1050 nM	5.54 µM	COC(=O)c1ccc(NC(=O)CSC2C3=C(CCCC3)C(=O)N2Cc2ccc(OC(C)C)cc2)nc1 (stereo not drawn) [Compound 5]
–	259	450 nM	1.8 µM	390 nM	1.35 µM	COc1ccc(CN2C(=O)C3=C(CCCC3)C2SCC(=O)Nc2ccccn2)cc1OC (stereo not drawn) [Compound 10, 2-[2-(3,4-Dimethoxy-benzyl)-3-oxo-2,3,4,5,6,7-hexahydro-1H-isoindol-1-ylsulfanyl]-N-pyridin-2-yl-acetamide]
–	–	210 nM	3.1 µM	–	–	COc1ccc(CN2C(=O)C3=C(CCCC3)C2SCC(=O)Nc2ccc(C(N)=O)cn2)cc1OC (stereo not drawn) [Compound 13, 6-{2-[2-(3,4-Dimethoxy-benzyl)-3-oxo-2,3,4,5,6,7-hexahydro-1H-isoindol-1-ylsulfanyl]-acetylamino}-nicotinamide]
79.4	–	10900 nM	>50 µM	–	–	O=C(CSC1C2=C(CCCC2)C(=O)N1Cc1ccc([N+](=O)[O-])cc1)Nc1ccccn1 (stereo not drawn) [Compound 14, 2-[2-(4-Nitro-benzyl)-3-oxo-2,3,4,5,6,7-hexahydro-1H-isoindol-1-ylsulfanyl]-N-pyridin-2-yl-acetamide]
106	–	7300 nM	>50 µM	–	–	O=C(CSC1C2=C(CCCC2)C(=O)N1Cc1ccc(O)cc1)Nc1nccs1 (stereo not drawn) [Compound 15, 2-[2-(4-Hydroxy-benzyl)-3-oxo-2,3,4,5,6,7-hexahydro-1H-isoindol-1-ylsulfanyl]-N-thiazol-2-yl-acetamide]
125	–	710 nM	6.3 µM	–	–	O=C(CSC1C2=C(CCCC2)C(=O)N1Cc1cccc2ccccc12)Nc1ccccn1 (stereo not drawn) [Compound 17, 2-(2-Naphthalen-1-ylmethyl-3-oxo-2,3,4,5,6,7-hexahydro-1H-isoindol-1-ylsulfanyl)-N-pyridin-2-yl-acetamide]

Further lines, the molecule ahead of its results:

Compound	activation at 50 µM [1] [%]	activation at 50 µM [2] [%]	EC50 [1]	EC100% [1]	EC50 [2]	EC100% [2]
COC(=O)c1ccc(NC(=O)CSC2C3=C(CCCC3)C(=O)N2Cc2ccc(OC)cc2)nc1 (stereo not drawn) [Compound 2]	–	–	350 nM	1.32 µM	160 nM and 210 nM	0.52 µM and 0.98 µM
COc1ccc(CN2C(=O)C3=C(CCCC3)C2SCC(=O)Nc2ccccn2)cc1 (stereo not drawn) [Compound 3, 2-[2-(4-Methoxy-benzyl)-3-oxo-2,3,4,5,6,7-hexahydro-1H-isoindol-1-ylsulfanyl]-N-pyridin-2-yl-acetamide]	–	250	–	–	390 nM	1 µM
COc1ccc(CN2C(=O)C3=C(CCCC3)C2OCC(=O)Nc2ccccn2)cc1 (stereo not drawn) [Compound 4, 2-[2-(4-Methoxy-benzyl)-3-oxo-2,3,4,5,6,7-hexahydro-1H-isoindol-1-yloxy]-N-pyridin-2-yl-acetamide]	–	114	–	–	7780 nM	31.4 µM
COc1ccc(CN2C(=O)C3=C(CCCC3)C2SCC(=O)Nc2ccc(C(=O)O)cn2)cc1 (stereo not drawn) [Compound 8, 6-{2-[2-(4-Methoxy-benzyl)-3-oxo-2,3,4,5,6,7-hexahydro-1H-isoindol-1-ylsulfanyl]-acetylamino}-nicotinic acid]	–	–	1300 nM and 740 nM and 630 nM	–	900 nM	2.5 µM
COC(=O)c1ccc(NC(=O)CSC2C3=C(CCCC3)C(=O)N2Cc2ccc(OC)c(OC)c2)nc1 (stereo not drawn) [Compound 9, 6-{2-[2-(3,4-Dimethoxy-benzyl)-3-oxo-2,3,4,5,6,7-hexahydro-1H-isoindol-1-ylsulfanyl]-acetylamino}-nicotinic acid methyl ester]	164	206	330 nM	2.2 µM	250 nM	1.43 µM
COc1ccc(CN2C(=O)C3=C(CCCC3)C2SCC(=O)Nc2ccc(C)cn2)cc1OC (stereo not drawn) [Compound 11, 2-[2-(3,4-Dimethoxy-benzyl)-3-oxo-2,3,4,5,6,7-hexahydro-1H-isoindol-1-ylsulfanyl]-N-(5-methyl-pyridin-2-yl)-acetamide]	168	202	800 nM	5.7 µM	550 nM	3.5 µM
COc1ccc(CN2C(=O)C3=C(CCCC3)C2SCC(=O)Nc2nccs2)cc1OC (stereo not drawn) [Compound 12, 2-[2-(3,4-Dimethoxy-benzyl)-3-oxo-2,3,4,5,6,7-hexahydro-1H-isoindol-1-ylsulfanyl]-N-thiazol-2-yl-acetamide]	143	196	4300 nM	17.1 µM	3100 nM	10.3 µM
COc1ccc(CN2C(=O)C3=C(CCC3)C2SCC(=O)Nc2ccccn2)cc1 (stereo not drawn) [Compound 16, 2-[2-(4-Methoxy-benzyl)-3-oxo-1,2,3,4,5,6-hexahydro-cyclopenta[c]pyrrol-1-ylsulfanyl]-N-pyridin-2-yl-acetamide]	190	–	1100 nM	4.9 µM	–	–
O=C(CSC1C2=C(CCCC2)C(=O)N1Cc1cccnc1)Nc1ccccn1 (stereo not drawn) [Compound 18, 2-(3-Oxo-2-pyridin-3-ylmethyl-2,3,4,5,6,7-hexahydro-1H-isoindol-1-ylsulfanyl)-N-pyridin-2-yl-acetamide]	–	–	3600 nM	22 µM	–	–
O=C(CSC1C2=C(CCCC2)C(=O)N1Cc1ccncc1)Nc1ccccn1 (stereo not drawn) [Compound 19, 2-(3-Oxo-2-pyridin-4-ylmethyl-2,3,4,5,6,7-hexahydro-1H-isoindol-1-ylsulfanyl)-N-pyridin-2-yl-acetamide]	218	–	1600 nM	5 µM	–	–
NC(=O)c1ccc(NC(=O)CSC2C3=C(CCCC3)C(=O)N2Cc2ccc(F)cc2)nc1 (stereo not drawn) [Compound 20, 6-{2-[2-(4-Fluorobenzyl)-3-oxo-2,3,4,5,6,7-hexahydro-1H-isoindol-1-sulfanyl]-acetylamino}-nicotinamide]	–	–	450 nM and 270 nM	2 µM and 3.6 µM	–	–
O=C(CSC1C2=C(CCCC2)C(=O)N1Cc1ccc(F)cc1)Nc1ccc(C(=O)O)cn1 (stereo not drawn) [Compound 21, 6-{2-[2-(4-Fluoro-benzyl)-3-oxo-2,3,4,5,6,7-hexahydro-1H-isoindol-1-ylsulfanyl]-acetylamino}-nicotinic acid]	165	–	2200 nM	12 µM	–	–
